Data from patent US8278265B2, “Methods, kits and compositions comprising crotamine” (Fundacao de Amparo a Pesquisa do Estado de Sao Paulo—FAPESP, priority 2005, dated 2012).
Ends that are not written are not given here.

Tests used:
mice = experiment: Paralysis of the hind legs of mice after intraperitoneal injection; assay type: in vivo; conditions: sublethal dose, 50 μg of the conjugate (2.5 mg of toxin/kg) intraperitoneally, mouse
Method: When injected intraperitoneally, crotamine causes a quick paralysis, in less than 15 minutes, of the hind legs of mice, which is the typical physiological effect of this toxin.
Crotamine (1 mg) was suspended in 1 ml buffer (100 mM sodium carbonate/bicarbonate, pH 9.3) and conjugated to the fluorescent dye Cy3, a cyanine derivative supplied as a bifunctional form of an NHS-type ester in the Fluorolink Cy3 dye pack kit (Amersham Biosciences). To verify if Cy3-crotamine is biologically active, a sublethal dose, 50 μg of the conjugate (corresponding to 2.5 mg of toxin/kg) was intraperitoneally injected into a mouse. The crotamine linked to Cy3 complex caused the typical paralysis response of the hind legs in less than 15 minutes after injection.

blastocyts = experiment: Internalization of Cy3-conjugated crotamine in blastocysts in vitro; assay type: cell-based, murine; conditions: cell cytoplasm, FIG. 1
Method: Embryonic bodies (EBs) were obtained by the hanging drop method, as described above, using culture medium containing crotamine at various concentrations (100 μM to 0.1 μM), changing the medium every two to three days. To analyze the crotamine location in EBs under development, crotamine was substituted with crotamine linked to Cy3 (Cy3-crotamine) during the final 24 hours of incubation. Compact murine morulae (8-16 cells) were obtained from the oviduct and cultivated for 24 hours at 37° C. in 5% CO2, in individual microwells of V-bottom plates (Costar) with […] microwells in M16 medium (supplier: Sigma) and Cy3-crotamine (1-0.1 μM). After 24 hours of culture, normally developed blastocyst numbers were compared within the control and the experimental group.

[1] = system: cells from the peritoneal liquid and from the murine bone marrow; experiment: In vivo incorporation of Cy3-crotamine after intraperitoneal injection; set-up: species or system CD-1 strain mice
Method: In vitro assay: Semiconffluent cultures of pluripotent and differentiation ES cells (homogeneous cell population), as well as other cell cultures of normal and tumor origin, were kept in small laminar slides placed in 24-well plates containing appropriate culture medium. Cells were incubated for 2-3 minutes to 72 hours in the presence of Cy3-crotamine, under concentrations between 10 μM and 0.01 μM, or as control, just in the presence of the dye agent Cy3 diluted in 1 ml PBS (control). In in vivo assays, 1 ml of 1 μM Cy3-crotamine or the pure control dye agent Cy3 (1 ml) in PBS were intraperitoneally injected into a mouse (line CD-1). After 3 hours, cells from the bone marrow (mixed cell population), spleen and peritoneal liquid (mixed cell population) were isolated. Cells from the peritoneal liquid adhered to the microscope slides for one hour in RPMI medium supplemented with 10% FCS and no antibiotics at 37° C., under humid atmosphere and 5% CO2. In all assays, cells were washed twice with cold solutions of 0.1 M PBS, pH 7.4, fixed with 3.7% formaldehyde in PBS for fifteen minutes and washed twice with PBS. Microscope slides were prepared in the PBS/glycerol (1:1) solution. Alternatively, non-fixed cells were washed twice with PBS and observed in the confocal microscope.
(§1) To analyze the specific binding of Cy3-crotamine to chromatin and centrosome (a pair of small organelles named the centrioles), the same experimental procedure, as described above, was used, the sole difference consisting in the pre-treatment of ES cells and murine embryonic fibroblasts with 1 μM of free crotamine, followed by treatment with the conjugated crotamine, Cy3-crotamine, for 15 minutes more. A similar experiment was conducted in vivo, by injecting in mice both the conjugated and the free crotamine. As a control, 1 μM of Cy3-crotamine was used and incubated for 15 minutes. For the confocal microscopy analysis, cells were prepared as described above. Experiments with animals were carried out according to the international ethical recommendations for the use of animals.

centrosome = experiment: Marker for centrosome; assay type: cell-based; conditions: cells from the peritoneal liquid of mice and ES cells, FIG. 9
Method: as §1
Embryonic bodies, obtained according to the protocol as described above, after three days, adhered to small glass slides. On the following day, actively proliferating cells were simultaneously labeled with 5-bromo-2′-deoxyuridine (BrDU) and Cy3-crotamine. BrDU-labeled cell detection by the monoclonal antibody anti-BrDU (clone BU-1) was made according to manufacturer's recommendations (Amersham-Pharmacia Biotech). The secondary antibody was conjugated to the fluorescent compound FITC. […] Microscope slides were assembled in a PBS/glycerol solution (1:1) and analysed in a confocal microscope. […]

B16F10 cells tumor = experiment: Tumor labeling by cy3-crotamine; assay type: in vivo, Balb/c mouse; conditions: 5 μg/animal intraperitoneal, 24 hours after
Method: The cells were maintained in Dulbecco's modified Eagle's cell culture medium (DMEM; Invitrogen, Carlsbad, Calif.) supplemented with 15% fetal calf serum (FCS; Invitrogen). The cells were kept at 37° C. with humidity and 5% CO2. After preparing a cell suspension with about 5×10^6 cells/ml of PBS [phosphate buffered solution], approximately 0.2 ml of this suspension was subcutaneously or endovenously (retroorbital injection) injected into each Balb/c mouse, of 4 to 6 weeks-old with body weight between 16 to 20 g. For negative control, the animals were injected with 0.2 ml of PBS. Before setting up the experiments, the animals were kept under 12 hour light-dark cycle, and were allowed to have water and food ad libitum. All animals were caged and handled under ethical conditions according to international rules of animal care, stated by the International Animal Welfare Recommendations, and in accordance with the Guidelines for the Use of Animals in Biochemical Research
About 8 to 12 days after subcutaneous injection of B16F10 cells, the visible ‘melanoma’ tumors were removed and analyzed.
To observe the accumulation of fluorescently labeled crotamine [Cy3-crotamine] into tumors, injected mice were treated by a single intraperitoneal injection of 5 μg of cy3-crotamine/animal. 24 hours after, the animals were sacrificed and the ‘melanoma’ tumors and internal tissues were removed and analyzed [frozen/Tissue-Tek and Paraplast block preparations]. The frozen slices were stained with DAPI and analyzed by confocal microscopy. […]
To observe the accumulation of fluorescently labeled crotamine [Cy3-crotamine] into tumors, injected mice were treated by a single intraperitoneal injection of 5 μg of cy3-crotamine/animal. 24 hours after, the animals were sacrificed and the internal tissues (including those showing metastasis) were removed and analyzed [frozen/Tissue-Tek and Paraplast block preparations]. The frozen slices were stained with DAPI and analyzed by confocal microscopy.

3T3 cell line = experiment: Transfection of GFP plasmid DNA by crotamine peptide fragments; assay type: cell-based, mouse; conditions: for treatment time giving the best result: 24 and 48 hours tested
Method: 3T3 cells (spontaneously immortalized primary mouse fibroblasts) or COS-7 (cells derived from kidney of African green monkey) were plated (1.5×10^5) in 6-wells plate (dimension of 6×35 mm), containing DMEM culture medium with 10% fetal bovine serum (FBS) and […] L-glutamine, with no antibiotics, 1 or 2 days before the transfection until reaching 60% to 80% confluence of the plate. Transfection was performed in DMEM medium ([…]) with 2% FBS and 80 or 100 μM chloroquine. Aggregates (crotamine plus 2 μg DNA in 0.2 ml HBM) were added in each well, on the cells in culture. After five hours of incubation at 37° C., under humid atmosphere and 5% CO2, the medium was substituted with another one containing 10% FBS. In the control culture wells, DNA was added in the same concentration and they were processed in the same way of experimental samples. After 24 and 48 hours, cells were washed with PBSA and fixed with 3.7% formaldehyde. The transfection medium was substituted with DMEM medium, containing 10% FBS, and the transgenic expression was then evaluated 24 to 48 hours after the transfection. The efficiency of transfection as determined by DNA-peptide aggregates was compared with that obtained by using lipofectamine, following routine protocol.
Two peptides were synthesized based on crotamine sequence, e.g. two sequences corresponding to fragments of crotamine, i.e. Crot2-18 ([…] (SEQ ID NO: 3)), herewithin designated as peptide 1, and Crot27-39 ([…] (SEQ ID NO: 4)), herewithin designated as peptide 2. The ability and efficiency of these two peptides to transfect cells in vitro and in vivo were analysed. The same protocol which was used for natural crotamine, as described in Example 9 was followed: Peptides were mixed with the plasmid DNA containing the gene coding for GFP (green fluorescent protein). After forming the complex with DNA, peptides were put on Petri dishes containing 3T3 cell line and left in the CO2 oven for 24 and 48 hours. Subsequently, cells were fixed and the result of transfection was analysed by confocal microscopy. As controls, the same cells were transfected by using Lipofectamin, as well as the crotamine molecule with 42 amino acid residues.

[2] = three hours after intraperitoneal injection, CD-1 mice
[3] = subcutaneous injection of B16F10

Substance | time to typical paralysis response of the hind legs after injection (mice) | fluorescence in blastocysts (confocal microscopy) (blastocyts) | fluorescence in cytoplasm of mouse megakaryocyte ([1]; FIG. 5E-G) | fluorescence after pretreatment with non-labeled crotamine ([1]; cells pretreated with non-labeled crotamine, megakaryocyte, FIG. 5H) | signal in cytoplasm of living cells of the peritoneal liquid ([1]; living cells, FIG. 3A-C) | signal in nucleus of living cells of the peritoneal liquid ([1]; living cells, FIG. 3A-C) | signals on cells from the murine bone marrow [1, 2] | signals on cytoplasm and nucleus of cells from the peritoneal liquid [1, 2] | marking of the centrosome cycle (centrosome) | fluorescent signal inside the cell mass of B16F10 cells tumor (B16F10 cells tumor; endovenous injection of B16F10) | fluorescent signal inside the cell mass of B16F10 cells tumor (B16F10 cells tumor; [3]) | localization in tumor cells (overlay with DAPI) (B16F10 cells tumor; [3]) | signals from actively proliferating 3T3 cells compared with the original crotamine (3T3 cell line) | treatment time giving the best result (3T3 cell line; 3T3 cells) [h] | green fluorescence corresponding to GFP expression (3T3 cell line; 3T3 cells, in comparison with peptide 2, confocal microscopy)
Cy3-crotamine: crotamine conjugated to the fluorescent dye Cy3, a cyanine derivative (YKQCHKKGGHCFPKEKICLPPSSDFGKMDCRWRWKCCKKGSG; disulfide (positions not given here); not fully specified (bridges); ends not checked; also: Cy3 dye label, site not given here; UniProt Q9PWF3 23-64, looked up) | less than 15 minutes | intense fluorescence | weak fluorescence | Strong fluorescence restricted to the cytoplasm | strong | moderate | strong signals | strong signals | functions as a marker for the centrosome cycle | strong fluorescent signal | strong fluorescent signal | observed in the nucleus of the cells |  |  | 
KMDCRWRWKCCKK [peptide 2] |  |  |  |  |  |  |  |  |  |  |  |  | no distinctive signals | 48 | 
KQCHKKGGHCFPKEKIC [peptide 1] |  |  |  |  |  |  |  |  |  |  |  |  | no distinctive signals | 48 | more intense green fluorescence
